Laboratory results published in patent US8008298B2, “Pyrrolopyrazine kinase inhibitors” (Roche Palo Alto, priority 2008, dated 2011).

| SMILES | melting point [°C] |
| --- | --- |
| CC(C)(C)C(=O)c1c[nH]c2ncc(-c3cccc(C4=CCCCC4)c3)nc12 [Example I-352, 1-[2-(3-Cyclohex-1-enyl-phenyl)-5H-pyrrolo[2,3-b]pyrazin-7-yl]-2,2-dimethyl-propan-1-one] | 188 to 190 |
| Cc1cc(-c2cnc3[nH]cc(C(=O)C(C)(C)C)c3n2)cc(C(C)(C)C)c1 [Example I-334, 1-[2-(3-tert-Butyl-5-methyl-phenyl)-5H-pyrrolo[2,3-b]pyrazin-7-yl]-2,2-dimethyl-propan-1-one] | 234.9 to 236.1 |
| CC1(C(=O)c2c[nH]c3ncc(-c4cccc(N5CCN(S(N)(=O)=O)CC5)c4)nc23)CCCCC1 [Example 183, 4-{3-[7-(1-Methyl-cyclohexanecarbonyl)-5H-pyrrolo[2,3-b]pyrazin-2-yl]-phenyl}-piperazine-1-sulfonic acid amide] | 233 to 235 |
| CC1(C(=O)c2c[nH]c3ncc(Br)nc23)CCCC1 [Example 166, (2-Bromo-5H-pyrrolo[2,3-b]pyrazin-7-yl)-(1-methyl-cyclopentyl)-methanone] | 206.9 to 207.9 |
| CC(C)(C)C(=O)c1c[nH]c2ncc(-c3ccc(S(N)(=O)=O)cc3)nc12 [Example 140, 4-[7-(2,2-Dimethyl-propionyl)-5H-pyrrolo[2,3-b]pyrazin-2-yl]-benzenesulfonamide] | 277 to 278 |
| CN1CCN(c2ccc(-c3cnc4[nH]cc(C(=O)C5(C)CCCCC5)c4n3)cc2)CC1 [Example 170, (1-Methyl-cyclohexyl)-{2-[4-(4-methyl-piperazin-1-yl)-phenyl]-5H-pyrrolo[2,3-b]pyrazin-7-yl}-methanone] | 225 to 226 |
| COc1cc(-c2cnc3[nH]cc(C(=O)C4(C)CCCCC4)c3n2)cc(N2CCSCC2)c1 [Example I-155, [2-(3-Methoxy-5-thiomorpholin-4-yl-phenyl)-5H-pyrrolo[2,3-b]pyrazin-7-yl]-(1-methyl-cyclohexyl)-methanone] | 212 to 214 |
| CC1(C(=O)c2c[nH]c3ncc(-c4cccc(N5CCN(C(=O)CC#N)CC5)c4)nc23)CCCCC1 [Example 178, 3-(4-{3-[7-(1-Methyl-cyclohexanecarbonyl)-5H-pyrrolo[2,3-b]pyrazin-2-yl]-phenyl}-piperazin-1-yl)-3-oxo-propionitrile] | 214 to 216 |
| CCNC(=O)c1cccc(-c2cnc3[nH]cc(C(=O)C(C)(C)C)c3n2)c1 [Example I-365, 3-[7-(2,2-Dimethyl-propionyl)-5H-pyrrolo[2,3-b]pyrazin-2-yl]-N-ethyl-benzamide] | 232 to 233 |
| COc1cc(-c2cnc3[nH]cc(C(=O)C4(C)CCC(=O)C4)c3n2)cc(OC)c1OC (centres unmarked) [Example 214, 3-Methyl-3-[2-(3,4,5-trimethoxy-phenyl)-5H-pyrrolo[2,3-b]pyrazine-7-carbonyl]-cyclopentanone] | 238 to 240 |
| COc1cc(OC)cc(-c2cnc3[nH]cc(C(=O)C(C)(C)C)c3n2)c1 [Example 146, 1-[2-(3,5-Dimethoxy-phenyl)-5H-pyrrolo[2,3-b]pyrazin-7-yl]-2,2-dimethyl-propan-1-one] | 206.9 to 207.7 |
| Cn1nccc1-c1ccc(-c2cnc3[nH]cc(C(=O)C(C)(C)C)c3n2)cc1 [Example 281, 2,2-Dimethyl-1-{2-[4-(2-methyl-2H-pyrazol-3-yl)-phenyl]-5H-pyrrolo[2,3-b]pyrazin-7-yl}-propan-1-one] | 257 to 258 |
| COCC(=O)c1c[nH]c2ncc(-c3cc(OC)c(OC)c(OC)c3)nc12 [Example 132, 2-Methoxy-1-[2-(3,4,5-trimethoxy-phenyl)-5H-pyrrolo[2,3-b]pyrazin-7-yl]-ethanone] | 229 to 230 |
| CC(C)(C)C(=O)c1c[nH]c2ncc(-c3cc(N4CCCC4)cc(N4CCCC4)c3)nc12 [Example 97, 1-[2-(3,5-Di-pyrrolidin-1-yl-phenyl)-5H-pyrrolo[2,3-b]pyrazin-7-yl]-2,2-dimethyl-propan-1-one] | 291 to 303 |
| COc1ccc(-c2cnc3[nH]cc(C(=O)C(C)(C)C)c3n2)cc1N1CCCC1 [Example 101, 1-[2-(4-Methoxy-3-pyrrolidin-1-yl-phenyl)-5H-pyrrolo[2,3-b]pyrazin-7-yl]-2,2-dimethyl-propan-1-one] | 211 to 213 |
| CC(C)(C)C(=O)c1c[nH]c2ncc(-c3ccc(OCCN4CCCCC4)cc3)nc12 [Example I-363, 2,2-Dimethyl-1-{2-[4-(2-piperidin-1-yl-ethoxy)-phenyl]-5H-pyrrolo[2,3-b]pyrazin-7-yl}-propan-1-one] | 207 to 208 |
| CC(C)(C)C(=O)c1c[nH]c2ncc(-c3cccc(N4CCC(S(C)(=O)=O)C4)c3)nc12 (centres unmarked) [Example 109, 1-{2-[3-(3-Methanesulfonyl-pyrrolidin-1-yl)-phenyl]-5H-pyrrolo[2,3-b]pyrazin-7-yl}-2,2-dimethyl-propan-1-one] | 223 to 225 |
| CNc1ccc(-c2cnc3[nH]cc(C(=O)C4(C)CCCCC4)c3n2)cc1 [Example 171, [2-(4-Methylamino-phenyl)-5H-pyrrolo[2,3-b]pyrazin-7-yl]-(1-methyl-cyclohexyl)-methanone] | 273 to 275 |
| COc1cc(-c2cnc3[nH]cc(C(=O)CCC(C)OC)c3n2)cc(OC)c1OC (centres unmarked) [Example 129, 4-Methoxy-1-[2-(3,4,5-trimethoxy-phenyl)-5H-pyrrolo[2,3-b]pyrazin-7-yl]-pentan-1-one] | 150 to 151 |
| COc1cc(-c2cnc3[nH]cc(C(=O)C(C)(C)C)c3n2)cc(N2CC[S+]([O-])CC2)c1 [Example 269, 1-{2-[3-Methoxy-5-(1-oxo-1lambda*4*-thiomorpholin-4-yl)-phenyl]-5H-pyrrolo[2,3-b]pyrazin-7-yl}-2,2-dimethyl-propan-1-one] | 259 to 260 |
| CC(C)(C)C(=O)c1c[nH]c2ncc(-c3cccc(CN4CCCCC4)c3)nc12 [Example 150, 2,2-Dimethyl-1-[2-(3-piperidin-1-ylmethyl-phenyl)-5H-pyrrolo[2,3-b]pyrazin-7-yl]-propan-1-one] | 176 to 177 |
| CC(C)(C)C(=O)c1c[nH]c2ncc(-c3ccccc3O)nc12 [Example 152, 1-[2-(2-Hydroxy-phenyl)-5H-pyrrolo[2,3-b]pyrazin-7-yl]-2,2-dimethyl-propan-1-one] | 282 to 283 |
| COc1cc(-c2cnc3[nH]cc(C(=O)CC(C)C)c3n2)cc(OC)c1OC [Example 63, 3-methyl-1-[2-(3,4,5-trimethoxy-phenyl)-5H-pyrrolo[2,3-b]pyrazin-7-yl]-butan-1-one] | 210 to 211.4 |
| COc1cc(-c2cnc3[nH]cc(C(=O)C(C)(CO)CO)c3n2)cc(OC)c1OC [Example 58, 3-Hydroxy-2-hydroxymethyl-2-methyl-1-[2-(3,4,5-trimethoxy-phenyl)-5H-pyrrolo[2,3-b]pyrazin-7-yl]-propan-1-one] | 222 to 223 |
| CC(C)(C)C(=O)c1c[nH]c2ncc(-c3cccc(N4CCC(O)C4)c3)nc12 (centres unmarked) [Example I-402, 1-{2-[3-(3-Hydroxy-pyrrolidin-1-yl)-phenyl]-5H-pyrrolo[2,3-b]pyrazin-7-yl}-2,2-dimethyl-propan-1-one] | 245 to 248 |
| CC1(C(=O)c2c[nH]c3ncc(-c4cccc(N5CCCC5=O)c4)nc23)CCCCC1 [Example 283, 1-{3-[7-(1-methyl-cyclohexanecarbonyl)-5H-pyrrolo[2,3-b]pyrazin-2-yl]-phenyl}-pyrrolidin-2-one] | 215 to 217 |
| CNC(=O)c1cccc(-c2cnc3[nH]cc(C(=O)CC(C)C)c3n2)c1 [Example I-9, N-Methyl-3-[7-(3-methyl-butyryl)-5H-pyrrolo[2,3-b]pyrazin-2-yl]-benzamide] | 243 to 244 |
| COCc1ccc(-c2cnc3[nH]cc(C(=O)C(C)(C)C)c3n2)cc1 [Example I-132, 1-[2-(4-Methoxymethyl-phenyl)-5H-pyrrolo[2,3-b]pyrazin-7-yl]-2,2-dimethyl-propan-1-one] | 191 to 192 |
| CC(C)Oc1cccc(-c2cnc3[nH]cc(C(=O)C(C)(C)C)c3n2)c1 [Example 138, 1-[2-(3-Isopropoxy-phenyl)-5H-pyrrolo[2,3-b]pyrazin-7-yl]-2,2-dimethyl-propan-1-one] | 149 to 150 |
